This note sets out measurements from article PMC6687522 (Drug development research, 2019).

The target of one experiment is T1, human neutrophil elastase (HNE) (Homo sapiens, UniProt P08246).
T1 sequence (P08246 30-267): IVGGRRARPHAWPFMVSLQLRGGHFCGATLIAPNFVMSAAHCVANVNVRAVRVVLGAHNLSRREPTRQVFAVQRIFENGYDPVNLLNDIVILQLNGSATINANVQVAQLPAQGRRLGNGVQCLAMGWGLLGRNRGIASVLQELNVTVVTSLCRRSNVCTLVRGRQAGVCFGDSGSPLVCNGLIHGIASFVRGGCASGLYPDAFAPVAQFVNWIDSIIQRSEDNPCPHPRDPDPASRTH
In words: HNE inhibition assay. In kind it is biochemical.
Conditions: not given
In the case of `Cc1cccc(C(=O)n2c(C#N)cc3cccnc32)c1` [Compound 2d, 1-(3-Methylbenzoyl)-1H-pyrrolo[2,3-b]pyridine-2-carbonitrile], half-maximal inhibition (IC50) was put at 3500 ± 1200 nM.
As to `Cc1cccc(C(=O)n2c(C)c(C#N)c3cccnc32)c1` [Compound 2e, 2-Methyl-1-(3-methylbenzoyl)-1H-pyrrolo[2,3-b]pyridine-3-carbonitrile], it took 10800 ± 2200 nM to reach half-maximal inhibition (IC50).
The same measure, in the same setting: under `Cc1cccc(C(=O)n2cc(C#N)c3cc(Br)cnc32)c1` [Compound 7a, 5-Bromo-1-(3-methylbenzoyl)-1H-pyrrolo[2,3-b]pyridine-3-carbonitrile] stands 51 ± 14 nM.
On the same count and under the same terms, under `Cc1cccc(C(=O)n2cc(C#N)c3cc(Cl)cnc32)c1` [Compound 7b, 5-Chloro-1-(3-methylbenzoyl)-1H-pyrrolo[2,3-b]pyridine-3-carbonitrile] stands 160 ± 50 nM.
Same read-out and setting: for `Cc1cccc(C(=O)n2cc(C#N)c3cc([N+](=O)[O-])cnc32)c1` [Compound 7c, 1-(3-Methylbenzoyl)-5-nitro-1H-pyrrolo[2,3-b]pyridine-3-carbonitrile] the value was 400 ± 110 nM; for `Cc1cccc(C(=O)n2cc(C#N)c3cc(-c4ccccc4)cnc32)c1` [Compound 14a, 1-(3-Methylbenzoyl)-5-phenyl-1H-pyrrolo[2,3-b]pyridine-3-carbonitrile], 50 ± 20 nM; for `Cc1cccc(C(=O)n2cc(C#N)c3cc(-c4cccc(C(F)(F)F)c4)cnc32)c1` [Compound 14b, 1-(3-Methylbenzoyl)-5-(3-(trifluoromethyl)phenyl)-1H-pyrrolo[2,3-b]pyridine-3-carbonitrile], 180 ± 70 nM.
In the case of `Cc1cccc(C(=O)n2cc(C#N)c3cc(-c4cccc(C)c4)cnc32)c1` [Compound 14c, 1-(3-Methylbenzoyl)-5-(m-tolyl)-1H-pyrrolo[2,3-b]pyridine-3-carbonitrile], half-maximal inhibition (IC50) was put at 130 ± 40 nM.
Take `COc1cccc(-c2cnc3c(c2)c(C#N)cn3C(=O)c2cccc(C)c2)c1` [Compound 14d, 5-(3-Methoxyphenyl)-1-(3-methylbenzoyl)-1H-pyrrolo[2,3-b]pyridine-3-carbonitrile]: the IC50 (as a rule, the concentration needed to halve the response being measured) is 70 ± 15 nM.
In turn, `COc1ccc2cc(-c3cnc4c(c3)c(C#N)cn4C(=O)c3cccc(C)c3)ccc2c1` [Compound 14e, 5-(6-Methoxynaphthalen-2-yl)-1-(3-methylbenzoyl)-1H-pyrrolo[2,3-b]pyridine-3-carbonitrile] displayed an IC50 of 1600 ± 330 nM.
The same measure, in the same setting: under `Cc1cccc(C(=O)n2cc(C#N)c3cc(-c4ccsc4)cnc32)c1` [Compound 14f, 1-(3-methylbenzoyl)-5-(thiophen-3-yl)-1H-pyrrolo[2,3-b]pyridine-3-carbonitrile] stands 42 ± 15 nM.
Still for that read-out and setting: for `Cc1cccc(C(=O)n2cc(C#N)c3cc(-c4cccnc4)cnc32)c1` [Compound 14g, 1-(3-methylbenzoyl)-5-(pyridin-3-yl)-1H-pyrrolo[2,3-b]pyridine-3-carbonitrile] the value was 15 ± 4 nM.

Still in this experiment, the particulars now being: ratio of HNE IC50 values.
For the compound `Cc1cccc(C(=O)n2cc(C#N)c3cc(Br)cnc32)c1` [Compound 7a, 5-Bromo-1-(3-methylbenzoyl)-1H-pyrrolo[2,3-b]pyridine-3-carbonitrile], the “fold more potent than the 5-chloro derivative 7b” value is reported as “about 3 fold”.
On to `Cc1cccc(C(=O)n2cc(C#N)c3cc([N+](=O)[O-])cnc32)c1` [Compound 7c, 1-(3-Methylbenzoyl)-5-nitro-1H-pyrrolo[2,3-b]pyridine-3-carbonitrile], for which the “fold less potent than the 5-chloro derivative 7b” value was “about 2 fold”.
